Data on 11 molecules can be found in US20250320206A1, “STAT6 DEGRADERS” (Gilead Sciences, Inc., priority 2024, published 2025).

One assay deals with T1, STAT6 (Homo sapiens, UniProt P42226).
T1 construct: These cells express endogenous STAT6; host or cells: HeLa LgBiT clone 4.14
T1 sequence (P42226 1-847): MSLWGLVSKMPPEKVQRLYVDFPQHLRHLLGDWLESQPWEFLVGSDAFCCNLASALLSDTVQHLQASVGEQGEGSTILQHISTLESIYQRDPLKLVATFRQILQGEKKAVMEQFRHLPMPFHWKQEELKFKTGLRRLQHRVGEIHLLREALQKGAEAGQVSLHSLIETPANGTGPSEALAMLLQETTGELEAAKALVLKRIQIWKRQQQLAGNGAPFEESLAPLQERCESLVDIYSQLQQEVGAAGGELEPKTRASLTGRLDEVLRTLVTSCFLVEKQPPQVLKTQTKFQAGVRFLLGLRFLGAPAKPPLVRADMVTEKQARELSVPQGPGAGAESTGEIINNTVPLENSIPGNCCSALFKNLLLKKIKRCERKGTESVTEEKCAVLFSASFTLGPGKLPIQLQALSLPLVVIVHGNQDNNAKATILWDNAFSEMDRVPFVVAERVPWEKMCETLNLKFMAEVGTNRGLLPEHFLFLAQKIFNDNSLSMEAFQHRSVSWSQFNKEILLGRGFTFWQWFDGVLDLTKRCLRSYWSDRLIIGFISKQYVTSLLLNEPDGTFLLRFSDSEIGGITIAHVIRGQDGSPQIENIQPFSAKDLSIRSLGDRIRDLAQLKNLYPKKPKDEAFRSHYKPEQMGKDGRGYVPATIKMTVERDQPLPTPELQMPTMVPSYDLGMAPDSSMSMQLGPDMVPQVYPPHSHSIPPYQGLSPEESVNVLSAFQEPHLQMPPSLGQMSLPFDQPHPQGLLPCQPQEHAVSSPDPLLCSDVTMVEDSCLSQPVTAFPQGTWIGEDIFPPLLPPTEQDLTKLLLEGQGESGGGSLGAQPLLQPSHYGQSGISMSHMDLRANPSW
Kind of assay: Stat6 Degrader Assay (HiBiT based, HeLa LgBiT clone 4.14). It counts as cell-based. The note with it: HeLa LgBiT clone 4.14 HiBiT-STAT6, 4-24 h incubation; values given for compounds with >80% Emax; geometric mean; read-out: STAT6 degradation DC50. In a few lines: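 HeLa LgBiT clone 4.14 cells with CRISPR HiBiT-tagged endogenous STAT6, 5000 cells/well, compound dosed then incubated 4-24 h at 37° C, 5% CO2. Nano-Glo substrate added, 0.5 h, luminescence read as non-degraded STAT6. Terfenadine 50 μM (cell kill) defines 100% degradation.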

Assay [1] has as its system Eotaxin-3 release in human whole blood stimulated with IL-4. Kind of assay: Human Whole Blood Eotaxin-3 Assay (IL-4 stimulated eotaxin-3 release). It counts as cell-based. As to conditions: IL-4 stimulation, 48 h, values given for compounds with >80% Emax, geometric mean. In a few lines: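 Lithium-heparin human whole blood preincubated 2 h at 37° C with 4-fold serially diluted compounds (0.5% DMSO), then stimulated with recombinant human IL-4 ([…]) for 48 h. Eotaxin-3 (CCL26) in supernatant quantified by MSD immunoassay.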

For the molecule `CNc1cc(=O)n(-c2ccnc3c2cc(CN2CCC(c4c(F)cc(C(=O)N5CCC(CN6CCN(Cc7ccc8c(c7)C(C)(C)C(=O)N8C7CCC(=O)NC7=O)CC6)CC5)cc4F)CC2)n3C)cc1F` (stereo not shown) [Example 3u57, 3-(5-((4-((1-(3,5-difluoro-4-(1-((4-(5-fluoro-4-(methylamino)-2-oxopyridin-1 (2H)-yl)-1-methyl-1H-pyrrolo[2,3-b]pyridin-2-yl)methyl)piperidin-4-yl)benzoyl)piperidin-4-yl)methyl)piperazin-1-yl)methyl)-3,3-dimethyl-2-oxoindolin-1-yl)piperidine-2,6-dione], the DC50 on STAT6 was determined as 12 nM. For the same molecule, a half-maximal response in assay [1] (EC50) required 25.4 nM.
As for `CNc1cc(=O)n(-c2ccnc3c2cc(CN2CCC(c4c(F)cc(C(=O)N5CCC(CN6CCN(Cc7ccc8c(c7)n(C)c(=O)n8C7CCC(=O)NC7=O)C[C@@H]6C)CC5)cc4F)CC2)n3C)cc1F` (stereo partly drawn) [Example 3u60, 3-(5-(((S)-4-((1-(3,5-difluoro-4-(1-((4-(5-fluoro-4-(methylamino)-2-oxopyridin-1 (2H)-yl)-1-methyl-1H-pyrrolo[2,3-b]pyridin-2-yl)methyl)piperidin-4-yl)benzoyl)piperidin-4-yl)methyl)-3-methylpiperazin-1-yl)methyl)-3-methyl-2-oxo-2,3-dihydro-1H-benzo[d]imidazol-1-yl)piperidine-2,6-dione], on STAT6, the DC50 worked out at 0.7 nM. The molecule further returned an EC50 in assay [1] of 1.6 nM.
As to `CNc1cc(=O)n(-c2ccnc3c2cc([C@H](C)N2CC=C(c4c(C)cc(C(=O)N5CCC(CN6CCN(c7ccc8c(c7)C7(CC7)C(=O)N8C7CCC(=O)NC7=O)C[C@@H]6C)CC5)cc4F)CC2)n3C)cc1F` (stereo partly drawn) [Example 3u63, 3-(5′-((S)-4-((1-(3-fluoro-4-(1-((S)-1-(4-(5-fluoro-4-(methylamino)-2-oxopyridin-1 (2H)-yl)-1-methyl-1H-pyrrolo[2,3-b]pyridin-2-yl)ethyl)-1,2,3,6-tetrahydropyridin-4-yl)-5-methylbenzoyl)-piperidin-4-yl)methyl)-3-methylpiperazin-1-yl)-2′-oxospiro[cyclopropane-1,3′-indolin]-1′-yl)-piperidine-2,6-dione], the half-maximal degradation concentration (DC50) on STAT6 is 12.9 nM. The 50% effective concentration (EC50) in assay [1] is 67.3 nM.
As to `CNc1cc(=O)n(-c2ccnc3c2cc([C@H](C)N2CC=C(c4c(C)cc(C(=O)N5CCC(CN6CCN(Cc7ccc8c(c7)C7(CC7)C(=O)N8C7CCC(=O)NC7=O)CC6)CC5)cc4F)CC2)n3C)cc1F` (stereo partly drawn) [Example 3u66, 3-(5′-((4-((1-(3-fluoro-4-(1-((S)-1-(4-(5-fluoro-4-(methylamino)-2-oxopyridin-1 (2H)-yl)-1-methyl-1H-pyrrolo[2,3-b]pyridin-2-yl)ethyl)-1,2,3,6-tetrahydropyridin-4-yl)-5-methylbenzoyl)-piperidin-4-yl)methyl)piperazin-1-yl)methyl)-2′-oxospiro[cyclopropane-1,3′-indolin]-1′-yl)piperidine-2,6-dione], on STAT6, the DC50 is 1.6 nM. In addition, the concentration giving a half-maximal response (EC50) in assay [1] came to 4.3 nM.
Regarding `C[C@H]1CN(Cc2ccc3c(c2)C2(CC2)C(=O)N3C2CCC(=O)NC2=O)CCN1CC1CCN(C(=O)c2cc(F)c(C3CCN(Cc4cc5c(-n6ccc7c(c6=O)CCN7)ccnc5n4C)CC3)c(F)c2)CC1` (stereo partly drawn) [Example 3u69, 3-(5′-(((S)-4-((1-(3,5-difluoro-4-(1-((1-methyl-4-(4-oxo-1,2,3,4-tetrahydro-5H-pyrrolo[3,2-c]pyridin-5-yl)-1H-pyrrolo[2,3-b]pyridin-2-yl)methyl)piperidin-4-yl)benzoyl)piperidin-4-yl)methyl)-3-methylpiperazin-1-yl)methyl)-2′-oxospiro[cyclopropane-1,3′-indolin]-1′-yl)piperidine-2,6-dione], the DC50 on STAT6 was 1.5 nM. The molecule also gave a 50% effective concentration (EC50) in assay [1] of 2.4 nM.
For the molecule `CNc1ccn(-c2ccnc3c2cc(CN2CC=C(c4c(F)cc(C(=O)N5CCC(CN6CCN(Cc7ccc8c(c7)n(C7CC7)c(=O)n8C7CCC(=O)NC7=O)C[C@@H]6C)CC5)cc4F)CC2)n3C)c(=O)c1` (stereo partly drawn) [Example 3u71, 3-(3-cyclopropyl-5-(((S)-4-((1-(3,5-difluoro-4-(1-((1-methyl-4-(4-(methylamino)-2-oxopyridin-1 (2H)-yl)-1H-pyrrolo[2,3-b]pyridin-2-yl)methyl)-1,2,3,6-tetrahydropyridin-4-yl)benzoyl)piperidin-4-yl)methyl)-3-methylpiperazin-1-yl)methyl)-2-oxo-2,3-dihydro-1H-benzo[d]imidazol-1-yl)piperidine-2,6-dione], the half-maximal degradation concentration (DC50) at STAT6 stood at 5.3 nM. In addition, a half-maximal effect in assay [1] (EC50) was put at 1.8 nM.
Take `Cc1cc(C(=O)N2CCC(CN3CCN(Cc4cc5c(cc4F)n(C4CCC(=O)NC4=O)c(=O)n5C)CC3)CC2)cc(F)c1C1=CCN([C@@H](C)c2cc3c(-n4ccc5c(c4=O)CCN5)ccnc3n2C)CC1` (stereo partly drawn) [Example 3u74, 3-(6-fluoro-5-((4-((1-(3-fluoro-5-methyl-4-(1-((S)-1-(1-methyl-4-(4-oxo-1,2,3,4-tetrahydro-5H-pyrrolo[3,2-c]pyridin-5-yl)-1H-pyrrolo[2,3-b]pyridin-2-yl)ethyl)-1,2,3,6-tetrahydro-pyridin-4-yl)benzoyl)piperidin-4-yl)methyl)piperazin-1-yl)methyl)-3-methyl-2-oxo-2,3-dihydro-1H-benzo[d]imidazol-1-yl)piperidine-2,6-dione]: on STAT6, the DC50 was determined as 0.6 nM. The molecule also showed an EC50 in assay [1] of 1.1 nM.
With `CNc1cc(=O)n(-c2ccnc3c2cc(CN2CC=C(c4c(F)cc(C(=O)N5CCC(CN6CCN(Cc7ccc8c(c7)C(C)(C)C(=O)N8C7CCC(=O)NC7=O)C[C@@H]6C)CC5)cc4F)CC2)n3C)cc1F` (stereo partly drawn) [Example 3u77, 3-(5-(((S)-4-((1-(3,5-difluoro-4-(1-((4-(5-fluoro-4-(methylamino)-2-oxopyridin-1 (2H)-yl)-1-methyl-1H-pyrrolo[2,3-b]pyridin-2-yl)methyl)-1,2,3,6-tetrahydropyridin-4-yl)benzoyl)piperidin-4-yl)methyl)-3-methylpiperazin-1-yl)methyl)-3,3-dimethyl-2-oxoindolin-1-yl)piperidine-2,6-dione], at STAT6, the DC50 stood at 16.1 nM. In assay [1], this molecule came in with an EC50 of 24.1 nM.
As to `CNc1ccn(-c2ccnc3c2cc([C@H](C)N2CCC(c4c(F)cc(C(=O)N5CCC(CN6CCN(Cc7ccc8c(c7)C(C)(C)C(=O)N8C7CCC(=O)NC7=O)C[C@@H]6C)CC5)cc4F)CC2)n3C)c(=O)c1` (stereo partly drawn) [Example 3u80, 3-(5-(((S)-4-((1-(3,5-difluoro-4-(1-((S)-1-(1-methyl-4-(4-(methylamino)-2-oxopyridin-1 (2H)-yl)-1H-pyrrolo[2,3-b]pyridin-2-yl)ethyl)piperidin-4-yl)benzoyl)piperidin-4-yl)methyl)-3-methyl-piperazin-1-yl)methyl)-3,3-dimethyl-2-oxoindolin-1-yl)piperidine-2,6-dione], the DC50 on STAT6 came out at 0.8 nM. In addition, the response in assay [1] was half-maximal at 5 nM (EC50).
For `Cc1cc(C(=O)N2CCC(CN3CCN(Cc4ccc5c(c4)n(C)c(=O)n5C4CCC(=O)NC4=O)CC3)CC2)cc(F)c1C1=CCN([C@@H](C)c2cc3c(-n4cc(F)c5c(c4=O)CCN5)ccnc3n2C)CC1` (stereo partly drawn) [Example 3u85, 3-(5-((4-((1-(3-fluoro-4-(1-((S)-1-(4-(7-fluoro-4-oxo-1,2,3,4-tetrahydro-5H-pyrrolo[3,2-c]pyridin-5-yl)-1-methyl-1H-pyrrolo[2,3-b]pyridin-2-yl)ethyl)-1,2,3,6-tetrahydropyridin-4-yl)-5-methylbenzoyl)piperidin-4-yl)methyl)piperazin-1-yl)methyl)-3-methyl-2-oxo-2,3-dihydro-1H-benzo[d]imidazol-1-yl)piperidine-2,6-dione], the half-maximal degradation concentration (DC50) on STAT6 was 3.1 nM. In addition, the EC50 in assay [1] amounted to 5.2 nM.
With `C[C@H]1CN(Cc2ccc3c(c2)C(C)(C)C(=O)N3C2CCC(=O)NC2=O)CCN1CC1CCN(C(=O)c2cc(F)c(C3CCN(Cc4cc5c(-n6ccc7c(c6=O)CCN7)ccnc5n4C)CC3)c(F)c2)CC1` (stereo partly drawn) [Example 3u86, 3-(5-(((S)-4-((1-(3,5-difluoro-4-(1-((1-methyl-4-(4-oxo-1,2,3,4-tetrahydro-5H-pyrrolo[3,2-c]pyridin-5-yl)-1H-pyrrolo[2,3-b]pyridin-2-yl)methyl)piperidin-4-yl)benzoyl)piperidin-4-yl)methyl)-3-methylpiperazin-1-yl)methyl)-3,3-dimethyl-2-oxoindolin-1-yl)piperidine-2,6-dione], the 50% degradation concentration (DC50) on STAT6 amounted to 3.4 nM. The molecule also registered an EC50 in assay [1] of 5.1 nM.
